Experimental data reported in patent US4423215A, “Method of preparing sodium salts of imidazoledicarboxylic acid substituted cephalosporin derivatives” (Ajinomoto Company, Inc., priority 1981, dated 1983).
Structures can show the parent of a compound that is named as a salt. Where two headings read alike, the source gives them in different places.

Test: Acute toxicity, LD50 (mouse, i.v.)
Type: in vivo

Row | Structure (SMILES) | LD50 | LD50 (disodium salt)
1 | O=C(O)C1=C(C[n+]2ccc(CCS(=O)(=O)[O-])cc2)CS[C@@H]2[C@H](NC(=O)[C@H](NC(=O)c3[nH]cnc3C(=O)O)c3ccccc3)C(=O)N12 [dipotassium salt, 7B-[D--(-)-α-(4-carboxyimidazole-5-carboxyamide)-phenylacetamide]-3-(4-β-sulfoethyl-pyridinium)-methyl-3-cepham-4-carboxylic acid] | 0.5 to 1 g/kg | –
2 | O=C(O)C1=C(C[n+]2ccc(CCS(=O)(=O)[O-])cc2)CS[C@@H]2[C@H](NC(=O)[C@H](NC(=O)c3[nH]cnc3C(=O)O)c3ccccc3)C(=O)N12 [disodium salt, 7B-[D--(-)-α-(4-carboxyimidazole-5-carboxyamide)-phenylacetamide]-3-(4-β-sulfoethyl-pyridinium)-methyl-3-cepham-4-carboxylic acid, disodium salt] | – | more than 3 g/kg
